Legend:
Sf9 α1,2-mannosidase = biological target: T1, Sf9 α1,2-mannosidase (Spodoptera frugiperda, UniProt O18498); assay: α1,2-mannosidase activity assay, release of [3H]mannose from [3H]Man9GlcNAc by lysates of recombinant baculovirus-infected Sf9 cells; assay type: biochemical; details: cell lysates at 48 hours postinfection (FIG. 15B); for α-mannosidase activity in recombinant baculovirus-infected cells, inhibition by dMNJ: 500 μM dMNJ
T1 construct: This screening procedure identified a full-length α1,2-mannosidase cDNA clone which contains an ORF; made in house; host or cells: Sf9 cells infected with recombinant baculovirus (pVL1393 transfer plasmid, polyhedrin promoter, BacPAK6 DNA); Triton X-100 cell lysate, not purified
T1 sequence (O18498 1-670): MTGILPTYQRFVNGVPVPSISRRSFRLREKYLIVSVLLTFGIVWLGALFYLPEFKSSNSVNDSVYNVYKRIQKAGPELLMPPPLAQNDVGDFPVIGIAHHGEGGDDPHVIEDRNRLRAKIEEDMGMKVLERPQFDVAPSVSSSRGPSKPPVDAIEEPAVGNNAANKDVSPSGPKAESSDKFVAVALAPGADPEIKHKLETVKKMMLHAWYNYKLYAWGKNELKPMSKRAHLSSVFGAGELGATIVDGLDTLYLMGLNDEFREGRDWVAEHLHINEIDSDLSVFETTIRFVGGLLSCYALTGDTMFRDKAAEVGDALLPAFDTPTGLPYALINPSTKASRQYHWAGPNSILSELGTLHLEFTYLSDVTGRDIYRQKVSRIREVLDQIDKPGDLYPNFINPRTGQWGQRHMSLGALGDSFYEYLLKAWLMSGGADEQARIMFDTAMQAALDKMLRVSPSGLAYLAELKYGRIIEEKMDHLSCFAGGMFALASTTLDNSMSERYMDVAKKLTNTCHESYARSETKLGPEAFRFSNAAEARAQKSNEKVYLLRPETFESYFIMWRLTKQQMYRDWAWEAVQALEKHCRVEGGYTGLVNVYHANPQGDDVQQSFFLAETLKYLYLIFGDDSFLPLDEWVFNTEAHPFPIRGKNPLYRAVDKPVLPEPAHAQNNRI
Description: Sf9 cell lysates were used for α1,2-mannosidase activity assays with [3H]Man9GlcNAc as described previously (Herscovics and Jelinek-Kelly, 1987) with some modifications. The cells were seeded into 25 cm tissue culture flasks (Corning Glass Works, Corning, N.Y.) at a density of 3 million cells per flask and infected at a multiplicity of infection of 10 plaque forming units per cell with either a recombinant baculovirus encoding the Sf9 α1,2-mannosidase cDNA under the control of the polyhedrin promoter, or wild type baculovirus as a control. The cells were harvested by centrifugation at selected times after infection, washed with 100 mM Na^+MES (pH 6.0), and lysed using 1 ml per 30,000 cells of the same buffer containing 0.5% Triton X-100 with or without 80 mM EDTA.
[…] of the lysates were used in each reaction of the α1,2-mannosidase activity assays. Cell lysates for negative control reactions were boiled for 3 min prior to being added to the reactions. All reactions were carried out in a total volume of […] containing 75 mM Na^+MES (pH 6.0), 0.0625% Triton X-100, and 6000 cpm of [^3H]MangGlcNAc. In addition, some reactions contained CaCl2, MgCl2, EDTA, or dMNJ. The reactions were incubated at 37° C. for 2.5 hours, boiled for 2 min, and 250 ml of a 5 mM solution of CaCl2, MgCl2, and MnCl2, and 175 ml of a 2.25 mg/ml solution of concanavalin A (Boehringer-Mannheim, Indianapolis, Ind.) in 3.8 M NaCl were added to each reaction. The solutions were vortexed gently and incubated at room temperature for two minutes, then 1 ml of 25% PEG-8000 was added and the solutions were vortexed and incubated for another 5 min at room temperature. The solutions were then centrifuged for 2 min at 10,000×g, 1 ml of the supernatant was added to 4 ml of a scintillation cocktail (Ultima Gold™; Packard Instrument Company, Meriden, Conn.), and radioactivity was measured using a Beckman liquid scintillation counter (Model LS 60001C; Beckman Instruments, Inc., Fullerton, Calif.).

N-linked glycans on gp64 = details: baculovirus-infected lepidopteran cells (Jarvis and Garcia, 1994); cited from earlier work
Sf9 α-mannosidase II = biological target: T2, Sf9 α-mannosidase II (Spodoptera frugiperda, UniProt O18497); assay: α-mannosidase activity assay with p-nitrophenyl α-D-mannopyranoside on extracts of recombinant baculovirus-infected Sf9 cells; assay type: biochemical; details: various concentrations of swainsonine; extracts 24, 36, 48 h postinfection (FIG. 7B)
T2 construct: The assembled full-length open reading frame of the Sf9 α-mannosidase II cDNA; made in house; host or cells: Sf9 cells infected with recombinant baculovirus (pVL1392 transfer vector, polyhedrin promoter); Triton X-100 cell extract, not purified
T2 sequence (O18497 1-1130): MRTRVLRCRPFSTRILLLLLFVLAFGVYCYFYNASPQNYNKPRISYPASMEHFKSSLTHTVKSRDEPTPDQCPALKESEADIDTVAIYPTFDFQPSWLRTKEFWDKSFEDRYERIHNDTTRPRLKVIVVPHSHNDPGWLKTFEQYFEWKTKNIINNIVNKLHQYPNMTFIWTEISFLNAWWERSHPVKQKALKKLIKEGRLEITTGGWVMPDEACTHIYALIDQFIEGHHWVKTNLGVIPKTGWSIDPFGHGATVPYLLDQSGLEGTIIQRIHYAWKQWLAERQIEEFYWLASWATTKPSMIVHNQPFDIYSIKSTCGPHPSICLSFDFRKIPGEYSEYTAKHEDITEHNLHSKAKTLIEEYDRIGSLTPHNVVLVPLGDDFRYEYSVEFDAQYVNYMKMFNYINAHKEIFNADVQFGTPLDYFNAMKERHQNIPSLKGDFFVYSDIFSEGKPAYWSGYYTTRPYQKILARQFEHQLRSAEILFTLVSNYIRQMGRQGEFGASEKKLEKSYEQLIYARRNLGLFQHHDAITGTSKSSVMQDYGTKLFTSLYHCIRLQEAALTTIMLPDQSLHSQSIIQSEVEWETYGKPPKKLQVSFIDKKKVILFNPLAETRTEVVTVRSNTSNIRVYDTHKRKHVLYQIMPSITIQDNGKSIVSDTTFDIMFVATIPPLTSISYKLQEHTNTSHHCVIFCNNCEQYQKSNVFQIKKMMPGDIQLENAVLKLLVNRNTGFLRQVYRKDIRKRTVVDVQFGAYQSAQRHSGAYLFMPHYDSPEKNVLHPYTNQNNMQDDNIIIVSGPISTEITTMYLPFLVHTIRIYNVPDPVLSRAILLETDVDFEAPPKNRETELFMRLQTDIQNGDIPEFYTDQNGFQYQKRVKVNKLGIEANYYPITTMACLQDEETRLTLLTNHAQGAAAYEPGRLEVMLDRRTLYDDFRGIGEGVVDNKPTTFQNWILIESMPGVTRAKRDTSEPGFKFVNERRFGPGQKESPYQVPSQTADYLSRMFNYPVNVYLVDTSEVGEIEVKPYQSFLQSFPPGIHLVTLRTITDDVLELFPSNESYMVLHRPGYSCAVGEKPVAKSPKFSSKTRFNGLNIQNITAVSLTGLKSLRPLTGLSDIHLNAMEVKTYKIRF
Description: Sf9 cells were infected with wild-type or recombinant baculoviruses were harvested by centrifugation at various times after infection, and pellets containing 1×10^6 cells were resuspended in 100 μl of assay buffer (0.1 M MES, pH 6.3; 0.5% Triton-X-100). The cell suspensions were assayed for o-mannosidase activity by mixing 25 μl of the cell extracts with 25 μl of 10 mM p-nitrophenyl α-D-mannopyranoside in the presence or absence of various concentrations of swainsonine. The reaction mixtures were incubated in a microtiter plate for 1 hr at 37° C. with gentle agitation, then quenched by the addition of 200 μl of stop solution (133 mM glycine, 67 mM NaCl, 83 mM Na2CO3). Absorbance was measured at 410 nm on a plate reader (Dynatech Model MR 5000), corrected for light scattering at 570 nm, and the corrected absorbance values were converted to nmol p-nitrophenol using a standard curve produced on the same plate reader.

OC[C@H]1NC[C@@H](O)[C@@H](O)[C@@H]1O [dMNJ, 1-deoxymannojirimycin]
α-mannosidase activity in recombinant baculovirus-infected cells, inhibition by dMNJ (Sf9 α1,2-mannosidase): strongly inhibited | α-mannosidase activity in recombinant baculovirus-infected cells, inhibition by dMNJ (Sf9 α1,2-mannosidase; listed as 1-deoxymannojirimycin): inhibited | processing of N-linked glycans on gp64 (N-linked glycans on gp64): block the processing

O[C@H]1[C@H]2[C@H](O)CCCN2C[C@H]1O [swainsonine]
α-mannosidase activity in recombinant baculovirus-infected cell extracts in the presence of swainsonine (Sf9 α-mannosidase II): sensitive

O=C(O)CN(CCN(CC(=O)O)CC(=O)O)CC(=O)O [EDTA]
α-mannosidase activity in recombinant baculovirus-infected cells, inhibition by EDTA (Sf9 α1,2-mannosidase; 10 mM EDTA, reversed by calcium, not magnesium): strongly inhibited

— US6461863B1, “Modifying insect cell gylcosylation pathways with baculovirus expression vectors” (University of Wyoming, priority 1996, dated 2002)
